Columns and labels:
Assay type in all cases: physicochemical
[1] = High-temperature color development rate (A35/A23×100), temperature dependency
Protocol: (§1) • [1] Maximum Absorption Wavelength (λmax): The maximum absorption wavelength after color development, measured using a spectrophotometer (instantaneous multichannel photodetector MCPD3000) manufactured by Otsuka Electronics Co., Ltd. was used as an indicator for the color tone during the color development. • [2] 23°C Color Optical Density (A23): A difference between an absorbancy measured after light irradiation at 23°C for 240 seconds {ε(240)} and an absorbancy without light irradiation ε(0) at the maximum absorption wavelength was used as an indicator for the color optical density. […] 35°C Color Optical Density (A35): A difference between an absorbancy measured after light irradiation at 35°C for 240 seconds {ε(240)} and an absorbancy without light irradiation ε(0) at the first and second absorption wavelengths was used as an indicator for the color optical density. […] 23°C color fading half-life [τ1/2 (sec.)]: A time required for the absorbancy of the sample at the maximum absorption wavelength to decrease to 1/2 of {ε(240)-ε(0)} when the light irradiation is terminated after the light irradiation at 23°C for 240 seconds, was used as an indicator for the color fading speed. The shorter this time, the higher the color fading speed. • [6] Residual rate (A90/A0×100): The obtained photochromic plastic lens was subjected to accelerated deterioration using a xenon weather meter X25 manufactured by Suga Test Instruments Co., Ltd. for 90 hours. Subsequently, the color optical density was evaluated before and after the test, then a color optical density before the test (A0) and a color optical density after the test (A90) were measured, and a ratio (A90/A0) was defined as a residual rate. The residual rate was used as an indicator for a color developing durability. The higher the residual rate, the higher the color developing durability.

[2] = Residual rate (A90/A0×100) after 90 h accelerated deterioration in xenon weather meter X25, color developing durability; conditions: xenon weather meter 90 hours
Protocol: as §1

[3] = 35°C color optical density (A35): absorbancy difference ε(240)-ε(0) after 240 s light irradiation at 35°C; conditions: 240 s irradiation
Protocol: as §1

[4] = Maximum absorption wavelength (λmax) after color development, spectrophotometer MCPD3000
Protocol: as §1

[5] = 23°C color optical density (A23): absorbancy difference ε(240)-ε(0) after 240 s light irradiation at 23°C; conditions: 240 s irradiation
Protocol: as §1

[6] = cured product by kneading method, 1 mm
[7] = photochromic laminate by coating method
[8] = binder sheet (binder method), urethaneurea resin photochromic layer between polycarbonate sheets, 0.25 mmol per 100 parts by mass resin
[9] = photochromic cured product by kneading method, 1 mm thick thiourethane, 0.106 mmol per 100 g monomers
[10] = photochromic laminate by coating method, 40 µm photochromic layer on thiourethane lens, 0.25 mmol compound per 100 g monomers
[11] = photochromic laminate by coating method, at the maximum absorption wavelength
[12] = binder sheet (binder method), measured at 451 nm absorption maximum
[13] = binder sheet (binder method), measured at 565 nm absorption maximum
[14] = photochromic laminate by coating method, at 451 nm absorption maximum
[15] = photochromic laminate by coating method, at 566 nm absorption maximum

Row | Structure (SMILES) | A35/A23 *100 (%) ([1]; binder sheet (binder method)) | A35/A23 *100 (%) [1, 6] | A35/A23 *100 (%) [1, 7] | Residual rate (%) ([2]; binder sheet (binder method)) | Residual rate (%) [2, 6] | Residual rate (%) [2, 7] | A35 (-) ([3]; binder sheet (binder method)) | A35 (-) [3, 6] | A35 (-) [3, 7] | Maximum absorption wavelength (nm) [4, 8] | Maximum absorption wavelength (nm) [4, 9] | Maximum absorption wavelength (nm) [4, 10] | A23 (-) ([5]; binder sheet (binder method)) | A23 (-) [5, 6] | A23 (-) [5, 11] | also measured
1 | COc1ccc(C2(c3ccc(OC)cc3)C=Cc3c4c(c5cc(N(c6ccccc6)c6ccccc6)c(OC)cc5c3O2)-c2ccccc2C4(C)C)cc1 [Example 2 Formula (30)] | 70% | 71% | 70% | 94% | 88% | 82% | 1.07 - | 1.07 - | 1.05 - | 510 nm | 514 nm | 510 nm | 1.52 - | 1.51 - | 1.49 - | 
2 | CCCC1(CCC)c2ccccc2-c2c1c1c(c3cc(OC)c(N(C)c4ccccc4)cc23)OC(c2ccc(OC)cc2)(c2ccc(OC)cc2)C=C1 [Example 3 Formula (32)] | 68% | 69% | 68% | 97% | 90% | 84% | 0.76 - | 0.77 - | 0.74 - | 498 nm | 502 nm | 498 nm | 1.11 - | 1.12 - | 1.0897 - | 
3 | COc1ccc(C2(c3ccc(OC)cc3)C=Cc3c4c(c5cc(N(C)c6ccc(F)cc6)c(OC)cc5c3O2)-c2ccccc2C4(C)C)cc1 [Example 4 Formula (34)] | 66% | 67% | 66% | 93% | 84% | 80% | 0.79 - | 0.81 - | 0.78 - | 496 nm | 500 nm | 496 nm | 1.20 - | 1.20 - | 1.18 - | 
4 | CCCOc1ccc(C2(c3ccc(OCCC)cc3)C=Cc3c4c(c5cc(N(CCOC)c6ccccc6)c(OC)cc5c3O2)-c2ccccc2C42CCCCCCC2)cc1 [Example 6 Formula (47)] | 71% |  | 71% | 94% |  | 80% | 0.97 - |  | 0.95 - | 499 nm |  | 499 nm | 1.37 - |  | 1.34 - | 
5 | COc1ccc(C2(c3ccc(N4CCOCC4)cc3)C=Cc3c4c(c5cc(N6CCCc7ccccc76)c(OC)cc5c3O2)-c2ccc(C)cc2C4(CCCC(F)(F)F)CCCC(F)(F)F)cc1 (stereo not drawn) [Example 8 Formula (54)] |  | 66% | 64% |  | 80% | 75% |  | 0.79 - | 0.75 - |  | 549 nm | 545 nm |  | 1.20 - | 1.18 - | 
6 | CCC1(CC)CCC2(CC1)c1ccccc1-c1c2c2c(c3cc(OC)c(N(C)c4ccc(C(F)(F)F)cc4)cc13)OC(c1ccc(C)cc1)(c1ccc(OC)cc1)C=C2 (stereo not drawn) [Example 9 Formula (57)] |  |  | 64% |  |  |  |  |  |  |  |  |  |  |  |  | A35/A23 *100 (%) [1, 12]: 66%; A35/A23 *100 (%) [1, 13]: 65%; Residual rate (%) [2, 12]: 95%; Residual rate (%) [2, 13]: 96%; Residual rate (%) [2, 14]: 83%; Residual rate (%) [2, 15]: 84%; A35 (-) [3, 12]: 0.49 -; A35 (-) [3, 13]: 0.56 -; A35 (-) [3, 14]: 0.47 -; A35 (-) [3, 15]: 0.55 -; Maximum absorption wavelength (nm) ([4]; binder sheet (binder method), urethaneurea resin photochromic layer between polycarbonate sheets, 0.25 mmol per 100 parts by mass resin, measured at 451 nm absorption maximum): 451 nm; Maximum absorption wavelength (nm) ([4]; binder sheet (binder method), urethaneurea resin photochromic layer between polycarbonate sheets, 0.25 mmol per 100 parts by mass resin, measured at 565 nm absorption maximum): 565 nm; Maximum absorption wavelength (nm) ([4]; photochromic laminate by coating method, 40 µm photochromic layer on thiourethane lens, 0.25 mmol compound per 100 g monomers, at 451 nm absorption maximum): 451 nm; Maximum absorption wavelength (nm) ([4]; photochromic laminate by coating method, 40 µm photochromic layer on thiourethane lens, 0.25 mmol compound per 100 g monomers, at 566 nm absorption maximum): 566 nm; A23 (-) [5, 12]: 0.75 -; A23 (-) [5, 13]: 0.88 -; A23 (-) ([5]; photochromic laminate by coating method, at the maximum absorption wavelength, at 451 nm absorption maximum): 0.73 -; A23 (-) ([5]; photochromic laminate by coating method, at the maximum absorption wavelength, at 566 nm absorption maximum): 0.86 -

Reference: patent publication EP4692071A1, “PHOTOCHROMIC COMPOUND, NAPHTHOL DERIVATIVE, CURABLE COMPOSITION, OPTICAL ARTICLE, LENS, AND EYEGLASS” (TOKUYAMA CORPORATION, priority 2023, dated 2024)
